Measured values from US20150342882A1, “METHODS OF TREATMENT USING CADOTRIL COMPOSITIONS” (Johnson & Johnson Consumer Inc., priority 2012, published 2015).
Converted amounts (≈) assume the structure as drawn.

Test: Water solubility of racecadotril
Type: physicochemical
Settings: room temperature conditions

solubility: ~10 µg/mL (≈ 25.9 µM)
Compound: CC(=O)SCC(Cc1ccccc1)C(=O)NCC(=O)OCc1ccccc1 (racemic) [Racecadotril, (RS)-benzyl N-[3-(acetylthio)-2-benzylpropanoyl]glycinate]
